Laboratory results from paper PMC10991509, “A phase I study of ATR inhibitor gartisertib (M4344) as a single agent and in combination with carboplatin in patients with advanced solid tumours” (British Journal of Cancer, 2024).

System: patients with advanced solid tumours
Experiment: Phase I safety and tolerability (TEAEs, DLTs, MTD/RP2D)
Type: in vivo
Text: This phase I, multicenter, multicohort, open-label, first-in-human study (NCT02278250) assessed the safety, tolerability, pharmacokinetics (PK) and antitumour activity of orally administered gartisertib alone or in combination with intravenous carboplatin in patients with advanced solid tumours for whom no standard therapy was available.
The primary objectives of cohorts A and A2 were to evaluate safety and tolerability and determine the maximum tolerated dose (MTD) and/or recommended phase II dose (RP2D) of escalating doses of gartisertib monotherapy. In cohort B1, the primary objective was to determine the safety and tolerability as well as the MTD and/or RP2D of escalating doses of gartisertib in combination with carboplatin. The primary endpoints for these three study cohorts were safety parameters (AEs, clinical laboratory values, vital signs, and electrocardiogram [ECG] assessment) as well as the MTD and/or RP2D. The Supplementary Materials provide further details regarding the safety analysis, including determination of MTD, as well as the definitions of dose-limiting toxicities (DLTs; Supplementary Table S1). Please note that in this study increased blood bilirubin was defined as a laboratory finding whereas hyperbilirubinemia was a clinical diagnosis based on clinical symptoms.
Gartisertib safety was determined via reporting, recording, and analysis of Baseline Medical Conditions, AEs, physical examination data including vital signs, electrocardiograms and laboratory tests. Medical history and physical examination data were collected during the study. Any potential AE was reported and comprehensively evaluated throughout the study. AE severity was assessed according to the National Cancer Institute – Common Terminology Criteria for Adverse Events (NCI–CTCAE) version 4.0 (cohorts A and B1) or 5.0 (cohorts A2 and C). Any clinical AE with a grade of 4 or 5 was considered to be a serious AE (SAE). A laboratory AE of grade 4 was considered serious if it met certain SAE criteria. […] Important medical events that may not result in death, be life-threatening, or require hospitalization were considered to be SAEs when, based upon appropriate medical judgment, they may jeopardize the patient or may require medical or surgical intervention to prevent one of the outcomes listed above.
Patients were monitored throughout treatment cycles for DLTs. DLTs were defined using the NCI CTCAE (cohorts A and B1: version 4.0; cohort A2: version 5.0) and were defined as being related or possibly related to treatment.
Cohorts A, A2, and B1: With respect to determination of the MTD, the next dose level to be investigated was decided at a Dose Escalation Meeting and was based on the available safety data from the previous cohort. The MTD of gartisertib was primarily determined by DLTs that occurred up to and including the end of the DLT period. Please see Table S1 for definitions of DLTs. In cohorts A and B1, the gartisertib MTD was determined according to the NCI-CTCAE version 4.0 and in cohorts A2 and […], the gartisertib MTD was defined according to the NCI-CTCAE version 5.0. If ≥2 out of up to six participants at the same dose level have a DLT, the gartisertib MTD was determined as the dose level below or at an intermediate dose level. The exact dose was determined following a discussion regarding all the relevant toxicity, including DLTs that occur in prior cohorts beyond the end of the DLT period. An RP2D was determined for each applicable cohort of the study; however, it may not be higher than the MTD.

Nc1nn2cc(F)cnc2c1C(=O)Nc1cncc(F)c1N1CCC(C(=O)N2CCN(C3COC3)CC2)CC1 [gartisertib, Gartisertib]
TEAE Constipation, Grade 3/4 (human, in vivo): 0 (0.0) n (%) | TEAE Decreased appetite, Grade 3/4 (human, in vivo): 0 (0.0) n (%) | TEAE Diarrhoea, Grade 3/4 (human, in vivo): 0 (0.0) n (%) | TEAE Disease progression, Grade 3/4 (human, in vivo): 0 (0.0) n (%) | TEAE Disease progression, any grade (human, in vivo): 0 (0.0) n (%) | TEAE Dyspnoea, Grade 3/4 (human, in vivo): 0 (0.0) n (%) | TEAE Headache, Grade 3/4 (human, in vivo): 0 (0.0) n (%) | TEAE Hypokalaemia, Grade 3/4 (human, in vivo): 0 (0.0) n (%) | TEAE Hypokalaemia, any grade (human, in vivo): 0 (0.0) n (%) | TEAE Hypomagnesaemia, Grade 3/4 (human, in vivo): 0 (0.0) n (%) | TEAE Hypomagnesaemia, any grade (human, in vivo): 0 (0.0) n (%) | TEAE Jaundice, Grade 3/4 (human, in vivo): 0 (0.0) n (%) | TEAE Jaundice, any grade (human, in vivo): 0 (0.0) n (%) | TEAE Neutropenia, Grade 3/4 (human, in vivo): 0 (0.0) n (%) | TEAE Peripheral oedema, Grade 3/4 (human, in vivo): 0 (0.0) n (%) | TEAE Peripheral oedema, any grade (human, in vivo): 0 (0.0) n (%) | TEAE Thrombocytopenia, Grade 3/4 (human, in vivo): 0 (0.0) n (%) | TEAE Thrombocytopenia, any grade (human, in vivo): 0 (0.0) n (%) | TEAE anaemia (human, in vivo): 61.5% | TEAE fatigue (human, in vivo): 47.6% | TEAE increased blood bilirubin (human, in vivo): 61.5% | TEAE nausea (human, in vivo): 66.7% | abdominal pain leading to gartisertib discontinuation (human, in vivo): 7.7% | hepatic failure leading to gartisertib discontinuation (human, in vivo): 7.7% | increased ALT leading to gartisertib discontinuation (human, in vivo): 7.7% | increased blood bilirubin leading to gartisertib discontinuation (human, in vivo): 11.9% | nausea leading to gartisertib discontinuation (human, in vivo): 7.1% | patients experiencing a gartisertib-related TEAE (human, in vivo): ≥ 92.3% | patients who experienced at least one serious TEAE (human, in vivo): ≥ 50% | patients with grade 3 or 4 changes in laboratory parameters (human, in vivo): ≤ 20% | recommended phase II dose (RP2D) (human, in vivo): 250 mg QD | serious TEAE related to gartisertib (human, in vivo): 19.0-37.5% | DLTs at QD doses subsequently investigated (in vivo): no additional DLTs observed | changes in ECG parameters (in vivo): no clinically relevant changes | changes in vital signs (in vivo): no clinically relevant changes | gartisertib dose reduction due to a treatment-related TEAE (in vivo): eight | patients with ≥1 DLT (in vivo): five | tolerability of gartisertib 1200 mg twice weekly (in vivo): not tolerated | deaths considered related to gartisertib or carboplatin (six deaths reported across all cohorts): none
